{
  "source": "patent EP0943615A1",
  "about": "“1,4-DIHYDROPYRIDINE DERIVATIVES” (Nikken Chemicals Company, Limited, priority 1996, dated 1998)",
  "data": [
    {"system": "VJ-300 cells", "test": "In vitro test of action suppressing proliferation of cancer cells, combined administration of doxorubicin (colony formation), resistant cells", "assay_type": "cell-based, Human", "settings": "ADM alone or ADM + test compound 1 µg/ml, LD50 of ADM relative to ADM alone in KB cells = 1, 7 days incubation, colony count", "protocol": "Human rhinopharynx cancer derived KB cells (i.e., sensitive cells) and their multi-drug resistant clone VJ-300 cells (i.e., resistant cells) were used as the test cells. As the incubation solutions, use was made of 10% fetal calf serum (Flow Laboratories) and Eagle MEM medium (Nissui Seiyaku) containing 0.292 mg/ml of L-glutamine (Flow Laboratories). The tests of the action for overcoming resistance to anti-cancer drugs or action for increasing the effect of the anti-cancer drug with the combined administration of the anti-cancer drug doxorubicin (i.e., adriamycin, ADM) and the test compound were performed as follows:\nThe test cells were suspended in incubation solutions and adjusted to a cell density of about 200 cells/ml. The cell suspensions were injected in 2 ml amounts into petri dishes and were incubated in a CO2 gas incubator (5% CO2, 95% air) at 37°C for 24 hours. Then, 5 µl of a predetermined concentration of the aqueous ADM solution and a predetermined concentration of a DMSO solution of the test compound were added, then the incubation was continued for a further 7 days. After the end of the incubation, the result was immobilized with methanol, Giemsa stained and measured for the number of colonies per dish. The results were used to prepare a volume-reaction curve. […] The results are shown in Table 8 to Table 10 using the concentration of LD50 of ADM in the ADM alone group by KB cells as the resistance degree 1 and calculating the resistances of the following LD50 concentrations as relative ratios. […]", "values": [
      {"smiles": "CCOC(=O)C1=C(c2ccc(N3CCN(C)CC3)cc2)NC(C)=C(C(=O)OC/C=C/c2cccnc2)C1/C=C/c1ccccc1", "note": "(centres unmarked) [Compound 30, 6-methyl-2-[4-(4-methylpiperadin-1-yl)phenyl]-1,4-dihydropyridin-4-[(E)-2-phenylethenyl]-3,5-dicarboxylate 3-ethylester, 5-[(E)-3-(3-pyridyl)-2-propenyl]ester]", "Degree of resistance for ADM VJ-300": 1.0},
      {"smiles": "CCOC(=O)C1=C(c2ccc(-n3c(C)nc4cnccc43)cc2)NC(C)=C(C(=O)OC/C=C/c2cccnc2)C1CCc1ccsc1", "note": "(centres unmarked) [Compound 26, 6-methyl-2-[4-(2-methylimidazo[4,5-c]pyridin-1-yl)phenyl]-4-[2-(3-thienyl)ethyl)-1,4-dihydropyridin-3,5-dicarboxylate 3-ethylester, 5-[(E)-3-(3-pyridyl)-2-propenyl]ester]", "Degree of resistance for ADM VJ-300": 1.8},
      {"smiles": "COc1cccc2c1C(=O)c1c(O)c3c(c(O)c1C2=O)C[C@@](O)(C(=O)CO)C[C@@H]3O[C@H]1C[C@H](N)[C@H](O)[C@H](C)O1", "note": "[ADM, doxorubicin, reference compound]", "Degree of resistance for ADM VJ-300": "26 - 51"},
      {"smiles": "CCOC(=O)C1=C(c2ccc(-n3nnc4ccccc43)cc2)NC(C)=C(C(=O)OC/C=C/c2cccnc2)C1/C=C/c1ccccc1", "note": "(centres unmarked) [Compound 32, 2-[4-(1H-benzotriazol-1-yl)phenyl]-6-methyl-4-[(E)-2-phenylethenyl]-1,4-dihydropyridin-3,5-dicarboxylate 3-ethylester, 5-[(E)-3-(3-pyridyl)-2-propenyl]ester]", "Degree of resistance for ADM VJ-300": 1.4},
      {"smiles": "CCCCCC1C(C(=O)OC/C=C/c2cccnc2)=C(C)NC(c2cccc(-n3ccnc3)c2)=C1C(=O)OCC", "note": "(centres unmarked) [Compound 37, 2-[3-(1-imidazolyl)phenyl]-6-methyl-4-pentyl-1,4-dihydropyridin-3,5-dicarboxylate 3-ethylester, 5-[(E)-3-(3-pyridyl)-2-propenyl]ester]", "Degree of resistance for ADM VJ-300": 2.5},
      {"smiles": "CCOC(=O)C1=C(c2ccc(-n3c(C)nc4cnccc43)cc2)NC(C)=C(C(=O)OC/C=C/c2cccnc2)C1CCC1CCCCC1", "note": "(centres unmarked) [Compound 28, 4-(2-cyclohexylethyl)-6-methyl-2-[4-(2-methylimidazo[4,5-c]pyridin-1-yl)phenyl]-1,4-dihydropyridin-3,5-dicarboxylate 3-ethylester, 5-[(E)-3-(3-pyridyl)-2-propenyl]ester]", "Degree of resistance for ADM VJ-300": 1.7},
      {"smiles": "CCOC(=O)C1=C(c2ccc(SC)cc2)NC(C)=C(C(=O)OC/C=C/c2cccnc2)C1/C=C/c1ccccc1", "note": "(centres unmarked) [Compound 31, 6-methyl-2-(4-methylthiophenyl)-1,4-dihydropyridin-4-[(E)-2-phenylethenyl]-3,5-dicarboxylate 3-ethylester, 5-[(E)-3-(3-pyridyl)-2-propenyl]ester]", "Degree of resistance for ADM VJ-300": 2.6},
      {"smiles": "CCOC(=O)C1=C(c2ccc(N3CCOCC3)cc2)NC(C)=C(C(=O)OC/C=C/c2cccnc2)C1/C=C/c1ccccc1", "note": "(centres unmarked) [Compound 34, 6-methyl-2-(4-morpholinophenyl)-4-[(E)-2-phenylethenyl]-1,4-dihydropyridin-3,5-dicarboxylate 3-ethylester, 5-[(E)-3-(3-pyridyl)-2-propenyl]ester]", "Degree of resistance for ADM VJ-300": 3.0},
      {"smiles": "CCOC(=O)C1=C(c2ccc(-n3cnc4ccccc43)cc2)NC(C)=C(C(=O)OCCCC(=O)c2cccnc2)C1C=C1CCCCC1", "note": "(centres unmarked) [Compound 48, 4-cyclohexylidenemethyl-6-methyl-2-[4-(1-benzimidazolyl)phenyl]-1,4-dihydropyridin-3,5-dicarboxylate 3-ethylester, 5-(3-nicotinoylpropyl)ester]", "Degree of resistance for ADM VJ-300": 1.7},
      {"smiles": "CCCCCC1C(C(=O)OC/C=C(/c2cccnc2)c2cccs2)=C(C)NC(c2ccc(-n3c(C)nc4cnccc43)cc2)=C1C(=O)OCC", "note": "(centres unmarked) [Compound 19, 6-methyl-2-[4-(2-methylimidazo[4,5-c]pyridin-1-yl)phenyl]-4-pentyl-1,4-dihydropyridin-3,5-dicarboxylate 3-ethylester, 5-[(Z)-3-(3-pyridyl)-3-(2-thienyl)-2-propenyl]ester]", "Degree of resistance for ADM VJ-300": 1.2},
      {"smiles": "CCOC(=O)C1=C(c2ccc(-n3c(C)nc4cnccc43)cc2)NC(C)=C(C(=O)OCCCc2cccnc2)C1CCc1ccccc1", "note": "(centres unmarked) [Compound 13, 6-methyl-2-[4-(2-methylimidazo[4,5-c]pyridin-1-yl)phenyl]-4-(2-phenylethyl)-1,4-dihydropyridin-3,5-dicarboxylate 3-ethylester, 5-[3-(3-pyridyl)propyl]ester]", "Degree of resistance for ADM VJ-300": 2.6},
      {"smiles": "CCOC(=O)C1=C(c2ccc(-n3c(C)nc4cnccc43)cc2)NC(C)=C(C(=O)OCCCc2cccnc2)C1C1CCCCC1", "note": "(centres unmarked) [Compound 9, 4-cyclohexyl-6-methyl-2-[4-(2-methylimidazo[4,5-c]pyridin-1-yl)phenyl]-1,4-dihydropyridin-3,5-dicarboxylate 3-ethylester, 5-[3-(3-pyridyl)propyl]ester]", "Degree of resistance for ADM VJ-300": 2.9},
      {"smiles": "CCOC(=O)C1=C(c2ccc(-n3c(C)nc4cnccc43)cc2)NC(C)=C(C(=O)OC/C=C(/c2cccnc2)c2cccs2)C1CCc1ccccc1", "note": "(centres unmarked) [Compound 20, 6-methyl-2-[4-(2-methylimidazo[4,5-c]pyridin-1-yl)phenyl]-4-(2-phenylethyl)-1,4-dihydropyridin-3,5-dicarboxylate 3-ethylester, 5-[(Z]-3-(3-pyridyl)-3-(2-thienyl)-2-propenyl]ester]", "Degree of resistance for ADM VJ-300": 1.6},
      {"smiles": "CCOC(=O)C1=C(c2ccc(-n3ccc4ccccc43)cc2)NC(C)=C(C(=O)OC/C=C/c2cccnc2)C1/C=C/c1ccccc1", "note": "(centres unmarked) [Compound 35, 2-[4-(1-indolyl)phenyl]-6-methyl-4-[(E)-2-phenylethenyl]-1,4-dihydropyridin-3,5-dicarboxylate 3-ethylester, 5-[(E)-3-(3-pyridyl)-2-propenyl]ester]", "Degree of resistance for ADM VJ-300": 3.0},
      {"smiles": "CCOC(=O)C1=C(c2ccc(-n3c(C)nc4ncccc43)cc2)NC(C)=C(C(=O)OC/C=C/c2cccnc2)C1/C=C/c1ccccc1Cl", "note": "(centres unmarked) [Compound 22, 4-[(E)-2-(2-chlorophenyl]ethenyl]-6-methyl-2-[4-(2-methylimidazo[4,5-b]pyridin-1-yl)phenyl]-1,4-dihydropyridin-3,5-dicarboxylate 3-ethylester, 5-[(E)-3-(3-pyridyl)-2-propenyl]ester]", "Degree of resistance for ADM VJ-300": 1.7},
      {"smiles": "CCOC(=O)C1=C(c2ccc(-n3c(C)nc4cnccc43)cc2)NC(C)=C(C(=O)OC/C=C/c2cccnc2)C1/C=C/c1ccoc1", "note": "(centres unmarked) [Compound 27, 4-[(E]-2-(3-furyl)ethenyl]-6-methyl-2-[4-(2-methylimidazo[4,5-c]pyridin-1-yl)phenyl]-1,4-dihydropyridin-3,5-dicarboxylate 3-ethylester, 5-[(E)-3-(3-pyridyl)-2-propenyl]ester]", "Degree of resistance for ADM VJ-300": 8.7},
      {"smiles": "CCOC(=O)C1=C(c2ccc(-n3c(C)nc4cnccc43)cc2)NC(C)=C(C(=O)OC/C=C/c2cccnc2)C1/C=C/c1ccccc1", "note": "(centres unmarked) [Compound 25, 6-methyl-2-[4-(2-methylimidazo[4,5-c]pyridin-1-yl)phenyl]-4-[(E)-2-phenylethenyl]-1,4-dihydropyridin-3,5-dicarboxylate 3-ethylester, 5-[(E)-3-(3-pyridyl)-2-propenyl]ester]", "Degree of resistance for ADM VJ-300": 1.1}
    ]}
  ]
}
